Laboratory results published in patent publication US20040162247A1, “Therapeutic agent or osteoporosis comprising an active ingredient of quercetin derivatives” (priority 2000, published 2004).

Tests used:
[1] = system: ALP activity in osteoblasts (Saos-2); assay: Alkaline phosphatase (ALP) activity in osteoblasts; type: cell-based, human; settings: Saos-2, 3 days
Description: Since osteoblasts have cell specific alkaline phosphatase activity, the effect of quercetin of the invention on ALP activity in osteoblasts was evaluated as follows: the number of cells, concentration of tested agent, and culture condition were same as those used in MTT experiment of Example 1-2, and cells were harvested after 3 day-incubation. Genistein was used as a comparative agent. ALP activity was evaluated by analysing changes of OD at 405 nm result from hydrolysis of p-nitrophenylphosphate to p-nitrophenol and phosphate (see: Table 1).

[2] = system: human osteoblast-like cell line Saos-2; assay: Cell proliferation of Saos-2 cells, MTT method; type: cell-based; settings: Saos-2, 3 days
Description: Saos-2 cell line which has similar properties to osteoblasts was obtained from Korean Cell Line Bank affiliated to the Cancer Research Institute of School of Medicine, Seoul National University.
Saos-2 cells were seeded in a RPMI 1640 medium (Gibco BRL, U.S.A.) supplemented with 10% (v/v) FBS, 100 unit/ml penicillin, 100 gg/ml streptomycin and grown to form a monolayer in an incubator at 37° C. under an environment of 5% (v/v) CO2 and saturated humidity. The culture was fed with fresh medium 2 to 3 times a week and subcultured once a week using 0.25% (w/v) trypsin.
Saos-2 cells were distributed into a 96-well plate (20,000 cells/well) and quercetin in 1% DMSO was added to a final concentration of 10-2 to 10^−9 mg/ml, 6 wells per each concentration. As a control group, cells without quercetin were used, and as a comparative group, the cells treated with various concentrations of genistein, being studied as a therapeutic agent for osteoporosis, were used. Cells were grown in an incubator at 37° C. for 3 days and incubated 4 more hours under the same condition after adding MTT (3-[4,5-dimethylthiazol-2-yl]-2,5-diphenyltetrazolium bromide, Triazolyl Blue) to a concentration of 0.05 mg/ml. Then, purple colored for-mazan formed in proportion to the number of viable cells was dissolved in DMSO and measured OD at 550 nm employing ELISA reader.
Cell proliferation rate (%) was evaluated by calculating the ratio of the OD of quercetin added well to the OD of control well, wherein, average value of ODs from 6 wells treated with the same concentration of quercetin was employed (see: Table 1).
cell proliferation rate (%)={(average value of OD at 550 nm of quercetin-treated wells—average value of OD at 550 nm of empty wells)/average value of OD at 550 nm of control wells}×100

[3] = system: ovariectomized rats; assay: Complete blood count in ovariectomized rats; type: in vivo, Female SD (Sprague-Dawley) rats
Description: (§1) When test agents were administered, for a certain period of time before and after administration, 1.5 ml of blood was sampled from tail vein using a catheter (B.D Co.: 24 G) and subjected to complete blood count (Coulter Co.: JT) and biochemical analyses of plasma (Crone Co.: Airon® 200). During autopsy, blood was sampled from caudal venae cavae and subjected to the analyses above. And then, each sample was frozen to store for measurement of trabecular bone area of femur and examination of internal organs.
Complete blood count which reflects the condition and abnormality of the body was measured to find out abnormality in test animals caused by administrtion of agents. That is, to find out changes in hematopoiesis of test rats, measured were red blood cell (RBC) count, concentration of hemoglobin (Hb) and hematocrit (Ht) of-blood samples obtained from the rats prior to operation and the rats 10 weeks after administrating agents following operation, and to find out changes in immune system such as inflammation and necrosis of tissues, measured were white blood cell count, lymphocyte count, monocyte count, and granulocyte count (see: Table 7).

[4] = system: ovariectomized rats; assay: Biochemical parameters in plasma of ovariectomized rats; type: in vivo, Female SD (Sprague-Dawley) rats
Description: as §1
Since blood reflects the condition of body, safety of quercetin in the body was evaluated by measuring biochemical parameters: that is, blood samples were obtained from the rat prior to operation, one week after operation, and 10 weeks after operation, and measured were levels of alkaline phosphatase (ALP), calcium, inorganic phosphate, blood urea nitrogen (BUN), creatinin, total cholesterol, HDL-cholesterol and LDL-cholesterol (see: Table 8).

[5] = system: ovariectomized rats; assay: Trabecular bone area of lumbars in ovariectomized rats;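 for Change Rate (%) of TBA of lumbars, of control group: control group rats were ovariectomized and are not the sham group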; type: in vivo, Female SD (Sprague-Dawley) rats; settings: OVX rats, 9 weeks i.p. (E2 1 μg/kg/day; quercetin, genistein 10 mg/kg/day); for Change Rate (%) of TBA of lumbars, of control group: control group = 100
Description: (§2) Trabecular bone area (TBA) of lumbar and tibia removed from the rats of each group which was treated with various agents for 9 weeks were measured as follows: that is, using a digitalizer of quantitative image analysis system (Wild Leitz Co.), image of each trabecula was obtained on computer monitor by drawing a contour of the trabecula, and then, using a computer, calculated were average areas of trabeculae within a rectangle of 2×10^6 μm^2 area wherein the width is about ⅔ of the length of growth plate which located underneath of growth plate at proximity of tibia. Also, following the number of trabeculae within the rectangle were obtained, average area was multiplied by the number of trabeculae to obtain trabecular bone area of each sample bone, which was analyzed statistically (see: Table 5).
TBAs of lumbars removed from the animal treated with test agents for 9 weeks were measured employing the same method above (see: Table 6).

[6] = system: ovariectomized rats; assay: Trabecular bone area of tibia in ovariectomized rats;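 for Change Rate (%) of TBA of tibia, of control group: control group rats were ovariectomized and are not the sham group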; type: in vivo, Female SD (Sprague-Dawley) rats; settings: OVX rats, 9 weeks i.p. (E2 1 μg/kg/day; quercetin, genistein 10 mg/kg/day); for Change Rate (%) of TBA of tibia, of control group: control group = 100
Description: as §2

[7] = after operation and drug administration (E2 1 μg/kg/day; quercetin, genistein 10 mg/kg/day i.p.)
[8] = 1 week after operation (start of administration)
[9] = 10 weeks after operation, 9 weeks i.p. (E2 1 μg/kg/day; quercetin, genistein 10 mg/kg/day)

White blood cell count, before versus after operation (in words) ([3]; OVX rats after drug administration): did not show any changes
Concentration of hemoglobin(Hb) [3, 7]: 14.70 ± 0.22 g/dL
Granulocyte count [3, 7]: 2.38 ± 0.37 ×10^3 cells/μl
Hematocrit(Ht) [3, 7]: 40.66 ± 0.56 %
Lymphocyte count [3, 7]: 15.25 ± 3.21 ×10^3 cells/μl
Monocyte count [3, 7]: 0.80 ± 0.19 ×10^3 cells/μl
Red blood cell(RBC) count [3, 7]: 7.17 ± 0.13 ×10^6 cells/μl
White blood cell count [3, 7]: 21.50 ± 2.53 ×10^3 cells/μl
Concentration of hemoglobin(Hb) ([3]; before operation (baseline)): 15.82 ± 0.27 g/dL
Granulocyte count ([3]; before operation (baseline)): 2.23 ± 0.10 ×10^3 cells/μl
Hematocrit(Ht) ([3]; before operation (baseline)): 42.76 ± 0.65%
Lymphocyte count ([3]; before operation (baseline)): 19.68 ± 4.52 ×10^3 cells/μl
Monocyte count ([3]; before operation (baseline)): 0.77 ± 0.09 ×10^3 cells/μl
Red blood cell(RBC) count ([3]; before operation (baseline)): 7.32 ± 0.13 ×10^6 cells/μl
White blood cell count ([3]; before operation (baseline)): 27.30 ± 4.85 ×10^3 cells/μl
Concentration of ALP in plasma [4, 8]: 212.10 ± 17.92 U/dL
Concentration of HDL-cholesterol in plasma [4, 8]: 35.26 ± 1.92 mg/dL
Concentration of LDL-cholesterol in plasma [4, 8]: 60.47 ± 7.04 mg/dL
Concentration of blood urea nitrogen (BUN) [4, 8]: 18.26 ± 0.94 mg/dL
Concentration of calcium in plasma [4, 8]: 8.97 ± 0.29 mg/dL
Concentration of creatinin in plasma [4, 8]: 0.64 ± 0.02 mg/dL
Concentration of inorganic phosphate in plasma [4, 8]: 6.47 ± 0.16 mg/dL
Concentration of total cholesterol in plasma [4, 8]: 91.56 ± 3.65 mg/dL
Concentration of ALP in plasma [4, 9]: 127.14 ± 9.95^##$$ U/dL
Concentration of HDL-cholesterol in plasma [4, 9]: 29.27 ± 1.98 mg/dL
Concentration of LDL-cholesterol in plasma [4, 9]: 91.80 ± 6.57^##$$ mg/dL
Concentration of blood urea nitrogen (BUN) [4, 9]: 18.31 ± 0.86 mg/dL
Concentration of calcium in plasma [4, 9]: 10.44 ± 0.22^$ mg/dL
Concentration of creatinin in plasma [4, 9]: 0.82 ± 0.04^##$ mg/dL
Concentration of inorganic phosphate in plasma [4, 9]: 5.62 ± 0.25 mg/dL
Concentration of total cholesterol in plasma [4, 9]: 121.07 ± 6.53 mg/dL
Level of inorganic phosphate 10 weeks after operation versus prior to operation (in words) ([4]; OVX rats, 10 mg/kg/day i.p.): remarkably decreased
Plasma ALP activity 10 weeks after operation versus prior to and one week after operation (in words) ([4]; OVX rats, 10 mg/kg/day i.p.): significant decrease of ALP activity
Concentration of ALP in plasma ([4]; before operation (baseline)): 208.86 ± 19.72 U/dL
Concentration of HDL-cholesterol in plasma ([4]; before operation (baseline)): 61.12 ± 3.57 mg/dL
Concentration of LDL-cholesterol in plasma ([4]; before operation (baseline)): 24.39 ± 3.63 mg/dL
Concentration of blood urea nitrogen (BUN) ([4]; before operation (baseline)): 16.82 ± 0.60 mg/dL
Concentration of calcium in plasma ([4]; before operation (baseline)): 10.61 ± 0.49 mg/dL
Concentration of creatinin in plasma ([4]; before operation (baseline)): 0.51 ± 0.04 mg/dL
Concentration of inorganic phosphate in plasma ([4]; before operation (baseline)): 7.18 ± 0.48 mg/dL
Concentration of total cholesterol in plasma ([4]; before operation (baseline)): 85.51 ± 5.45 mg/dL
Compound: O=c1c(-c2ccc(O)cc2)coc2cc(O)cc(O)c12 [Genistein, genistein]
ALP activity (% of control group) ([1]; 1 × 10^−2 mg/ml): 62.3 ± 3.4 % of control group
ALP activity (% of control group) ([1]; 1 × 10^−3 mg/ml): 98.8 ± 6.9 % of control group
ALP activity (% of control group) ([1]; 1 × 10^−4 mg/ml): 121.1 ± 6.2 % of control group
ALP activity (% of control group) ([1]; 1 × 10^−4 mg/ml, listed as genistein): 121 % of control group
ALP activity (% of control group) ([1]; 1 × 10^−5 mg/ml): 113.5 ± 7.3 % of control group
ALP activity (% of control group) ([1]; 1 × 10^−6 mg/ml): 103.8 ± 8.7 % of control group
ALP activity (% of control group) ([1]; 1 × 10^−7 mg/ml): 109.3 ± 9.6 % of control group
ALP activity (% of control group) ([1]; 1 × 10^−8 mg/ml): 101.5 ± 8.8 % of control group
ALP activity (% of control group) ([1]; 1 × 10^−9 mg/ml): 106.1 ± 6.4 % of control group
MTT assay (% of control group) ([2]; 1 × 10^−2 mg/ml): 66.2 ± 2.8 % of control group
MTT assay (% of control group) ([2]; 1 × 10^−2 mg/ml, listed as genistein): 66 % of control group
MTT assay (% of control group) ([2]; 1 × 10^−3 mg/ml): 85.5 ± 1.1 % of control group
MTT assay (% of control group) ([2]; 1 × 10^−3 mg/ml, listed as genistein): 86 % of control group
MTT assay (% of control group) ([2]; 1 × 10^−4 mg/ml): 95.7 ± 0.7 % of control group
MTT assay (% of control group) ([2]; 1 × 10^−5 mg/ml): 97.3 ± 1.6 % of control group
MTT assay (% of control group) ([2]; 1 × 10^−6 mg/ml): 90.5 ± 0.9 % of control group
MTT assay (% of control group) ([2]; 1 × 10^−6 mg/ml, listed as genistein): 90.5 % of control group
MTT assay (% of control group) ([2]; 1 × 10^−7 mg/ml): 95.9 ± 1.6 % of control group
MTT assay (% of control group) ([2]; 1 × 10^−8 mg/ml): 96.9 ± 2.7 % of control group
MTT assay (% of control group) ([2]; 1 × 10^−9 mg/ml): 91.3 ± 0.6 % of control group
MTT assay (% of control group) ([2]; 1 × 10^−9 mg/ml, listed as genistein): 91 % of control group
TBA (trabecular bone area) of lumbars [5]: 86.58 ± 3.00 ×10^4 μm^2
Change Rate (%) of TBA of lumbars, of control group [5]: 128.23 ± 4.45 %
Change Rate (%) of TBA of lumbars, of control group ([5]; listed as genistein): 128%
TBA (trabecular bone area) of tibia [6]: 47.65 ± 2.07 ×10^4 μm^2
Change Rate (%) of TBA of tibia, of control group [6]: 137.62 ± 5.98%
Change Rate (%) of TBA of tibia, of control group ([6]; listed as genistein): 138%
